Test results from US20170072033A1, “LIPOSOMAL COMPOSITIONS FOR MUCOSAL DELIVERY” (GlaxoSmithKline Biologicals, SA, priority 2014, published 2017).

Assay: Rabbit pyrogen test
Settings: ng CRX-601/kg animal body weight
Experimental: The test was performed at Pacific Biolabs (Hercules, Calif.) as per their SOP 16E-02, which follows procedures outlined in USP<151>.

Compound `CCCCCCCCCCC[C@H](CC(=O)N[C@H]1[C@H](OC[C@H](NC(=O)C[C@@H](CCCCCCCCCCC)OCCCCCCCCCC)C(=O)O)O[C@H](CO)[C@@H](OP(=O)(O)O)[C@@H]1OC(=O)C[C@@H](CCCCCCCCCCC)OCCCCCCCCCC)OCCCCCCCCCC` [CRX-601] has a max non-pyrogenic dose of 2.5 ng/kg.
